US7037907B1 (The University of Melbourne, priority 1999, dated 2006)
Values joined by “and” are separate entries in the source; they are usually repeats but may differ in a detail not shown here. Equal values may be shown once.

Experiments:
A549 cells = test: A549 cell DNA synthesis ([3H]-thymidine); assay type: cell-based; conditions: 5% fetal calf serum, 10 micromolar, [3H]-thymidine 24 hours after addition
Protocol: A549 cells were maintained in DMEM containing 5% fetal calf serum and undergoing asynchronous proliferation. DNA synthesis was determined by the addition of [3H]-thymidine 24 hours after the addition of one of 2-methoxyestradiol, 6-oxo-2-methoxyestradiol and 2-methoxyestradiol-17β-D-glucuronide.

[1] = target: T1, estrogen receptor (rat uterine cytosol) (Rattus norvegicus, UniProt P06211)
T1 sequence (P06211 1-600): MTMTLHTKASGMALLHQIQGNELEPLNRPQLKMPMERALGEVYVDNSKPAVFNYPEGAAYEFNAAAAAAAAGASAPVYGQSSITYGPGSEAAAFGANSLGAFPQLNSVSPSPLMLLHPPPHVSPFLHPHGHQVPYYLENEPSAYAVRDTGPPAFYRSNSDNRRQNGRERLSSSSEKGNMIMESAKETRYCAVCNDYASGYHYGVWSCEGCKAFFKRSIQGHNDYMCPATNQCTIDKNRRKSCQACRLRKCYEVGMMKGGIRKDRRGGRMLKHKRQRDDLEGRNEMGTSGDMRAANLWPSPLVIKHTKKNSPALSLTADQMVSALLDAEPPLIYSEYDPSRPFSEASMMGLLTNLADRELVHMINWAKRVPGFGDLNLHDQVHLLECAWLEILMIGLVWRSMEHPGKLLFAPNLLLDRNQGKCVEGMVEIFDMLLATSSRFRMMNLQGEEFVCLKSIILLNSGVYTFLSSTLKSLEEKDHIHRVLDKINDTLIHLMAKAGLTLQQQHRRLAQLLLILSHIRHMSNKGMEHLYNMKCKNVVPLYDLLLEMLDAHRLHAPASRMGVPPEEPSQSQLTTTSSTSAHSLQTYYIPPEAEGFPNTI

[2] = system: Human Airway Smooth Muscle cells; test: Human airway smooth muscle cell number; assay type: cell-based; conditions: compound 10 μM
From the text: (§1) Human airway fibroblasts were obtained from volunteers in a follow-up of the Melbourne Epidemiological Survey of Childhood Asthma (MESCA) (Oswald et al., 1994) initially recruited at age 7 in 1965 and now 42 years old. Volunteers underwent bronchial biopsy which provided tissue samples of epithelium and mucosa of approximately 2 mm^3. These specimens were dissected to remove the epithelium and placed in plastic culture plates. Fibroblasts grew by explant culture over a six week period when maintained according to previously described methods (Zhang et al., 1996). Cells were seeded at subconfluent densities onto six cell plates and after 72 hours were rendered quiescent by serum deprivation. Twenty four hours after serum removal, cells were exposed to thrombin (0.3 U/ml) together with a serum-free medium supplement containing insulin, transferrin and selenium. Cells were harvested by incubation with Trypsin (0.5% w/v) for 10 min. or until a single cell suspension was produced. Cell numbers were then determined using a haemocytometer.
Smooth muscle cells were obtained from airways resected from lung transplant recipients and cultured as previously described in detail (Fernandes et al., 1999). Cell numbers were determined in experiments of the same design as those described for human airway fibroblasts with the additional stimulus of 1% (v/v) fetal calf serum (FCS) being evaluated. In addition, [^3H]-thymidine incorporation was determined between 24 and 28 hours after the addition of thrombin to determine DNA synthesis (Fernandes et al. 1999).

[3] = incubation with rat renal homogenates for 5.5 hours in Tyrodes buffer
Protocol: (§2) At the end of these incubation periods, extraction was carried out by using 100 μl of reaction mixture with 200 μl of acetontrile (ACN) followed by the addition of 5 μl 2M HCL, vortexing and centrifugation at 1500 g (ambient temperature). Samples of enzyme incubates or quality control incubates were then chilled at −20° C. for at least 10 min, prior to removal of 120 μl of the upper (ACN) phase which is added to 120 μl distilled H2O. One hundred μl of this extract was injected into a Hewlett Packard Series 1050 HPLC fitted with a C18 analytical column (Hypersil ODS 3 μM, 4.6×150 mm) guarded by a pre column (Alltech Hypersil ODS 3 μM; 4.6×7.6 mm) and metabolites were detected with a Hewlett Packard 1046A fluorescence detector (I excitation 270 nm, emission, 320 nm). Metabolites were separated in a mobile phase of ACN buffer of 40:60 (buffer comprised 20 mM NaH2 PO4, 0.02% orthophosphoric acid, pH 3.1–3.2) at a flow rate of 0.7 ml/min. for the first 4 min with a linear gradient to a mobile phase of ACN: buffer (76:24) at 4.5 min. which was maintained for the remainder of the separation (10 min).

[4] = From the text: The octanol:water partition co-efficient is a measure of the relative aqueous and lipid solubility of a compound.
[5] = system: Airway smooth muscle cells; test: Shape change of cultured airway smooth muscle cells; assay type: cell-based, human; conditions: 72 hours in culture, 5% FCS, 10 micro M
[6] = target: purified E. Coli-derived β-glucuronidase (Escherichia coli, UniProt P05804); test: Susceptibility of 2-MEG to metabolism by E. Coli β-glucuronidase (HPLC); assay type: in vitro ADME; conditions: incubation with E. Coli β-glucuronidase for 16 hours in Tyrodes buffer
Protocol: as §2

Human airway fibroblasts = test: Human airway fibroblast cell number (haemocytometer); assay type: cell-based; conditions: stimulus Thrombin (0.3 U/ml), compound 10 μM
From the text: as §1

[7] = target: T1, estrogen receptor (rat uterine cytosol); test: biochemical

Sequence of purified E. Coli-derived β-glucuronidase (P05804 whole entry): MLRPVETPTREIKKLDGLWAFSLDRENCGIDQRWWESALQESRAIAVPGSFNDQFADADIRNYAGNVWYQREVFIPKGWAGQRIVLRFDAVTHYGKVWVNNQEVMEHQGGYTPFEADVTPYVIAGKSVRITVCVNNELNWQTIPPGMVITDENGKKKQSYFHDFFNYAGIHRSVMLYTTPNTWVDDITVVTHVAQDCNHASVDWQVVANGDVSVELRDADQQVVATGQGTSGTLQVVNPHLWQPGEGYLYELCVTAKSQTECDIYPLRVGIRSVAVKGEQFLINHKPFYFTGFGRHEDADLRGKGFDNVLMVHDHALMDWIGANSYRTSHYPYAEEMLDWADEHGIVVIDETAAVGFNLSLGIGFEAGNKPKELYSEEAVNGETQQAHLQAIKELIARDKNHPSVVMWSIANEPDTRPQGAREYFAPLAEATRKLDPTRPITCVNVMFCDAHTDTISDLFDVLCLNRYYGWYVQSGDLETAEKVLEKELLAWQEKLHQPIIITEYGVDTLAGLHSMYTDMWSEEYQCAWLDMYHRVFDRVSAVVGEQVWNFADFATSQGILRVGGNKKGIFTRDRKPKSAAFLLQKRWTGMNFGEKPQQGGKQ

displacement of [3H]estradiol at highest concentration ([1]; 10 μM displacer)	IC50 [7]	Compound	effect on DNA synthesis (A549 cells)	affinity for estrogen receptors relative to 2-MEO (from logIC50 values) ([1]; rat uterine cytosol, [3H]estradiol displacement)	Cell Number (% control) ([2]; stimulus FCS (1%, v/v))	Cell Number (% control) ([2]; stimulus Thrombin (0.3 U/ml))	conversion of 2-MEG to 2-MEO [3]	octanol/water partition coefficient ([4]; 1-octanol/water, fluorescence spectroscopy)	aqueous solubility relative to 2-MEO ([4]; inferred from partition coefficients)	logP ([4]; octanol/water)	cell shape change [5]	conversion of 2-MEG to 2-MEO [6]	Cell Number (% control) (Human airway fibroblasts)
–	–	COc1cc2c(cc1O)CC[C@@H]1[C@@H]2CC[C@]2(C)[C@@H](O[C@@H]3O[C@H](C(=O)O)[C@@H](O)[C@H](O)[C@H]3O)CC[C@@H]12 [2-MEG, 2-Methoxyestradiol-17-b-D-glucopyranosiduronic acid]	ineffective	1/50	47 ± 16, n = 5 % control	29 ± 8, n = 12 % control	~6%	0.372	approximately 25 times	−0.429	not detected	~20%	–
incomplete response	~100 nM	COc1cc2c(cc1O)CCC1C2CCC2(C)C(O)CCC12 (stereo not drawn) [2-MEO, 1,3,5(10)-estratriene-3,17βdiol 2 methyl ether, reference compound]	reduce DNA synthesis significantly	–	25 ± 9, n = 5 % control	14 ± 12, n = 10 % control	–	–	–	–	readily discernible shape change	–	12±8 % control and 12 ± 8, n = 7 % control
–	–	COc1cc2c(cc1O)C(=O)C[C@@H]1[C@@H]2CC[C@]2(C)[C@@H](O)CC[C@@H]12 [6-oxo-2-methoxyestradiol, 6-Oxo-2-methoxyestradiol]	reduce DNA synthesis significantly	–	–	–	–	–	–	–	–	–	–
